Measurements reported in patent publication US10815230B2, “Casein kinase 1 delta inhibitor” (ELECTROPHORETICS LIMITED, priority 2015, dated 2020).

Columns and labels:
[1] = target: CAMK1G (Homo sapiens, UniProt Q96NX5); test: KINOMEscan binding assay; settings: read-out: % Ctrl @ 10000 nM
[2] = target: T1, MAP3K1 (Homo sapiens, UniProt Q13233); test: KINOMEscan binding assay; settings: read-out: % Ctrl @ 10000 nM
T1 construct: T7 phage fusion (most assays) or DNA label after HEK293 expression; purchased DiscoveRx (KINOMEscan, LeadHunter Discovery services); host or cells: T7 phage in E. coli (BL21-derived) or HEK293

[3] = target: BUB1 (Homo sapiens, UniProt O43683); test: KINOMEscan binding assay; settings: read-out: % Ctrl @ 10000 nM
[4] = target: BMPR1B (Homo sapiens, UniProt O00238); test: KINOMEscan binding assay; settings: read-out: % Ctrl @ 10000 nM
[5] = target: CAMK4 (Homo sapiens, UniProt Q16566); test: KINOMEscan binding assay; settings: read-out: % Ctrl @ 10000 nM
[6] = target: PKN2 (Homo sapiens, UniProt Q16513); test: KINOMEscan binding assay; settings: read-out: % Ctrl @ 10000 nM
[7] = target: AMPK-alpha1 (Homo sapiens, UniProt Q13131); test: KINOMEscan binding assay; settings: read-out: % Ctrl @ 10000 nM
[8] = target: HASPIN (Homo sapiens, UniProt Q8TF76); test: KINOMEscan binding assay; settings: read-out: % Ctrl @ 10000 nM
[9] = target: MELK (Homo sapiens, UniProt Q14680); test: KINOMEscan binding assay; settings: read-out: % Ctrl @ 10000 nM
[10] = target: EPHA5 (Homo sapiens, UniProt P54756); test: KINOMEscan binding assay; settings: read-out: % Ctrl @ 10000 nM
[11] = target: ABL1 (H396P) phosphorylated (Homo sapiens, UniProt P00519, H396P); test: KINOMEscan binding assay; settings: read-out: % Ctrl @ 10000 nM
[12] = target: ALK (L1196M) (Homo sapiens, UniProt Q9UM73, L1196M); test: KINOMEscan binding assay; settings: read-out: % Ctrl @ 10000 nM
[13] = target: PCTK3 (Homo sapiens, UniProt Q07002); test: KINOMEscan binding assay; settings: read-out: % Ctrl @ 10000 nM
[14] = target: T2, ULK2 (Homo sapiens, UniProt Q8IYT8); test: KINOMEscan binding assay; settings: read-out: % Ctrl @ 10000 nM
T2 construct: purchased DiscoveRx (KINOMEscan, LeadHunter Discovery services)

[15] = target: KIT (D816V) (Homo sapiens, UniProt P10721, D816V); test: KINOMEscan binding assay; settings: read-out: % Ctrl @ 10000 nM
[16] = target: LATS1 (Homo sapiens, UniProt O95835); test: KINOMEscan binding assay; settings: read-out: % Ctrl @ 10000 nM
[17] = target: BIKE (Homo sapiens, UniProt Q9NSY1); test: KINOMEscan binding assay; settings: read-out: % Ctrl @ 10000 nM
[18] = target: PAK6 (Homo sapiens, UniProt Q9NQU5); test: KINOMEscan binding assay; settings: read-out: % Ctrl @ 10000 nM
[19] = target: AKT1 (Homo sapiens, UniProt P31749); test: KINOMEscan binding assay; settings: read-out: % Ctrl @ 10000 nM
[20] = target: ERK8 (Homo sapiens, UniProt Q8TD08); test: KINOMEscan binding assay; settings: read-out: % Ctrl @ 10000 nM
[21] = target: NEK10 (Homo sapiens, UniProt Q6ZWH5); test: KINOMEscan binding assay; settings: read-out: % Ctrl @ 10000 nM
[22] = target: TGFBR2 (Homo sapiens, UniProt P37173); test: KINOMEscan binding assay; settings: read-out: % Ctrl @ 10000 nM
[23] = target: FLT3 (D835H) (Homo sapiens, UniProt P36888, D835H); test: KINOMEscan binding assay; settings: read-out: % Ctrl @ 10000 nM
[24] = target: DMPK2 (Homo sapiens, UniProt Q6DT37); test: KINOMEscan binding assay; settings: read-out: % Ctrl @ 10000 nM
[25] = target: KIT (V559D) (Homo sapiens, UniProt P10721, V559D); test: KINOMEscan binding assay; settings: read-out: % Ctrl @ 10000 nM
[26] = target: MARK4 (Homo sapiens, UniProt Q96L34); test: KINOMEscan binding assay; settings: read-out: % Ctrl @ 10000 nM
[27] = target: HCK (Homo sapiens, UniProt P08631); test: KINOMEscan binding assay; settings: read-out: % Ctrl @ 10000 nM
[28] = in vitro; settings: human
Experimental: (§1) The cytotoxicity screening panel was performed by Cyprotex® according to their established protocols. HepG2 cells were plated on 96-well tissue culture treated black walled clear bottomed polystyrene plates, 100 μL per well. The cells were dosed with compound A and comparative compound 324 (WO2012080727; 5-(1,3-benzoxazol-2-yl)-4-(pyridine-4-yl)pyrimidin-2-amine) amine) at […], 0.1 μM, 0.4 μM, 1.0 μM, 4.0 μM, 10 μM, 40 μM and 100 μM. At the end of the incubation period (72 h), the cells were loaded with the relevant dye/antibody for each cell health marker. The plates were then scanned using an automated fluorescent cellular imager, ArrayScan® VTI (Thermo Scientific Cellomics).
(§2) Cytotoxicity was assessed using a multiparametric approach using High Content Screening (HCS) O'Brien P and Haskins J R (2007) High Content Screening: A Powerful Approach to Systems Cell Biology and Drug Discovery Ed. Taylor et al.; 415-425). […] This assay scores compounds across direct and indirect measure of toxicity.

[29] = system: HepG2 cells; test: in vitro; settings: human, 72 h
Experimental: as §1, §2

[30] = target: SNARK (Homo sapiens, UniProt Q9H093); test: KINOMEscan binding assay; settings: read-out: % Ctrl @ 10000 nM
[31] = target: PIP5K2B (Homo sapiens, UniProt P78356); test: KINOMEscan binding assay; settings: read-out: % Ctrl @ 10000 nM
[32] = target: T3, MAP4K4 (Homo sapiens, UniProt O95819); test: KINOMEscan binding assay; settings: read-out: % Ctrl @ 10000 nM
T3 construct: T7 phage fusion (most assays) or DNA label after HEK293 expression; purchased DiscoveRx (KINOMEscan, LeadHunter Discovery services); host or cells: T7 phage in E. coli (BL21-derived) or HEK293

[33] = target: HIPK3 (Homo sapiens, UniProt Q9H422); test: KINOMEscan binding assay; settings: read-out: % Ctrl @ 10000 nM
[34] = Cell membrane permeability AC50
[35] = Mitochondrial membrane potential AC50

T3 sequence (O95819 whole entry, the tested form may be a part): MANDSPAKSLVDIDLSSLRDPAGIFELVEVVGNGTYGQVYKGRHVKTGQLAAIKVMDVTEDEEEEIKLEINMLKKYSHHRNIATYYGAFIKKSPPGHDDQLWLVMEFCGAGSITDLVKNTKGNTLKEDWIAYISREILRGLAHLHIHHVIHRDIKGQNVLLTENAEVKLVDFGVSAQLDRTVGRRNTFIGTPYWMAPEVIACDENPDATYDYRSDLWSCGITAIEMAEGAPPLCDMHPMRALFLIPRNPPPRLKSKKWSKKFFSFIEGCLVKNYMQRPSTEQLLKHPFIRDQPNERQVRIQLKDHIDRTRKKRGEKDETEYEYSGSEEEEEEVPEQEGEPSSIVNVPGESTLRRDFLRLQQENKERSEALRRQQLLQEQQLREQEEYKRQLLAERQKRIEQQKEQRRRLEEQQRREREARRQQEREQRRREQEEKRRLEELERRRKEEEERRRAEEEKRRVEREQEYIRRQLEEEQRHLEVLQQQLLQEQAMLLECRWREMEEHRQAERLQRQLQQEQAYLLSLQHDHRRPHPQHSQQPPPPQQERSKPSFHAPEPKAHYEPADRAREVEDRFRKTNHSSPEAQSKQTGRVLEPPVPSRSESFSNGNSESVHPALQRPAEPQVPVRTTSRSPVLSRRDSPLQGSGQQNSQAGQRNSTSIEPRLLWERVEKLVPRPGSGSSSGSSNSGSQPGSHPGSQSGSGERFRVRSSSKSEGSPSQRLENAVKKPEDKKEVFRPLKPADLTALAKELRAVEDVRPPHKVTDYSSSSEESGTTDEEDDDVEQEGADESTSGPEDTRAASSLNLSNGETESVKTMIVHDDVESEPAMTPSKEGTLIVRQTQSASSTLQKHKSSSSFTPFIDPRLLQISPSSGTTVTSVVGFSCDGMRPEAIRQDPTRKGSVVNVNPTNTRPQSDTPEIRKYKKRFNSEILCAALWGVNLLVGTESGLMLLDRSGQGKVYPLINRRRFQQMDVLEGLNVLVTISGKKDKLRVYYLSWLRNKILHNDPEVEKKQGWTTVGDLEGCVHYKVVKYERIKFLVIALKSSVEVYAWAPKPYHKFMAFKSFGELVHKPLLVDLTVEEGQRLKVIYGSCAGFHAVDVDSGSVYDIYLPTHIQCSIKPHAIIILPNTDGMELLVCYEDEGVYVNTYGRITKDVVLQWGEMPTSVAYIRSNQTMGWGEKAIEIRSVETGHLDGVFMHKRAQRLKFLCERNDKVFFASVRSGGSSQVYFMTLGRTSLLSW
Chain of HCK (P08631 whole entry): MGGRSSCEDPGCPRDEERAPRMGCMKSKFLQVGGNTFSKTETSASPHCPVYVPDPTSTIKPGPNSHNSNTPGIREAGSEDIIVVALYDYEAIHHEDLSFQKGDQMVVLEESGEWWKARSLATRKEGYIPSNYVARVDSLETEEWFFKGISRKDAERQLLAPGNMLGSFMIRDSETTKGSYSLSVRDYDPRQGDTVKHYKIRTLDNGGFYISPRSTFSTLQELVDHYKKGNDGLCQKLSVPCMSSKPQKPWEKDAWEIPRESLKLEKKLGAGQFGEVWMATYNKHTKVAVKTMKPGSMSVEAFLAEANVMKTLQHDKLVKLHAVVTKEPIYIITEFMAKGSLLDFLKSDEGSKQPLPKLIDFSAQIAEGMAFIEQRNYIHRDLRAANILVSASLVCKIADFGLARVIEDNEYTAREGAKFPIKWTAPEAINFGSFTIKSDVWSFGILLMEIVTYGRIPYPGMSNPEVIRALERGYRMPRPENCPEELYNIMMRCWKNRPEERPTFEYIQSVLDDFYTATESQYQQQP
Chain of BUB1 (O43683 whole entry): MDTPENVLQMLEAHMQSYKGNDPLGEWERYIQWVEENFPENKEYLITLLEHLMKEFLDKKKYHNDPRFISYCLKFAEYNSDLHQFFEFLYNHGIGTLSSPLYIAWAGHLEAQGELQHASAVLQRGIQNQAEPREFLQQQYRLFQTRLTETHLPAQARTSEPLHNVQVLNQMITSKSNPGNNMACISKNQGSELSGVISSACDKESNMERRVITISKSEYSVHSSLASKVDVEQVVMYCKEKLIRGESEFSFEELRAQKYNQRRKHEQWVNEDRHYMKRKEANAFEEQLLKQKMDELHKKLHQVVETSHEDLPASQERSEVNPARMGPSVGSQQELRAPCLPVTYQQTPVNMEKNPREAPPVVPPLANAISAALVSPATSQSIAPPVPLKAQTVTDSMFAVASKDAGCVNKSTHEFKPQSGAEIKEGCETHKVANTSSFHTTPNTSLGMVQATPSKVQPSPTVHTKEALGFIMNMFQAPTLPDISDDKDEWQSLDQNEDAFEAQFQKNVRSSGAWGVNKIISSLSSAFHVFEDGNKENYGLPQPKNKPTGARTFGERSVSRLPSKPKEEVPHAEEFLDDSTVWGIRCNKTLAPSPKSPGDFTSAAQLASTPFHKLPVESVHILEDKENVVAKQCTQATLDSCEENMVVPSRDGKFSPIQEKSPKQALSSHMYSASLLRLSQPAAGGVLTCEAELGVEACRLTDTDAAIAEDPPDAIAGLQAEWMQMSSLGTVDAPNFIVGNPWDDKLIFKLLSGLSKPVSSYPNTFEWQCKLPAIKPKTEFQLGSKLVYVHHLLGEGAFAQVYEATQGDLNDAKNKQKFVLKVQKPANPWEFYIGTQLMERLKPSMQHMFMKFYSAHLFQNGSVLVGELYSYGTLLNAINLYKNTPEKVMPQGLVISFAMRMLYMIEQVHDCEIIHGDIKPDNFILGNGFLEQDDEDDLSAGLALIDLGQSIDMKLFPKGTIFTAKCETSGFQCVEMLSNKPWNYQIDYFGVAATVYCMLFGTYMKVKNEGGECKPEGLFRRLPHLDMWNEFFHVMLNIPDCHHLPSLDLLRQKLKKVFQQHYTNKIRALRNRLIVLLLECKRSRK
Chain of NEK10 (Q6ZWH5 whole entry): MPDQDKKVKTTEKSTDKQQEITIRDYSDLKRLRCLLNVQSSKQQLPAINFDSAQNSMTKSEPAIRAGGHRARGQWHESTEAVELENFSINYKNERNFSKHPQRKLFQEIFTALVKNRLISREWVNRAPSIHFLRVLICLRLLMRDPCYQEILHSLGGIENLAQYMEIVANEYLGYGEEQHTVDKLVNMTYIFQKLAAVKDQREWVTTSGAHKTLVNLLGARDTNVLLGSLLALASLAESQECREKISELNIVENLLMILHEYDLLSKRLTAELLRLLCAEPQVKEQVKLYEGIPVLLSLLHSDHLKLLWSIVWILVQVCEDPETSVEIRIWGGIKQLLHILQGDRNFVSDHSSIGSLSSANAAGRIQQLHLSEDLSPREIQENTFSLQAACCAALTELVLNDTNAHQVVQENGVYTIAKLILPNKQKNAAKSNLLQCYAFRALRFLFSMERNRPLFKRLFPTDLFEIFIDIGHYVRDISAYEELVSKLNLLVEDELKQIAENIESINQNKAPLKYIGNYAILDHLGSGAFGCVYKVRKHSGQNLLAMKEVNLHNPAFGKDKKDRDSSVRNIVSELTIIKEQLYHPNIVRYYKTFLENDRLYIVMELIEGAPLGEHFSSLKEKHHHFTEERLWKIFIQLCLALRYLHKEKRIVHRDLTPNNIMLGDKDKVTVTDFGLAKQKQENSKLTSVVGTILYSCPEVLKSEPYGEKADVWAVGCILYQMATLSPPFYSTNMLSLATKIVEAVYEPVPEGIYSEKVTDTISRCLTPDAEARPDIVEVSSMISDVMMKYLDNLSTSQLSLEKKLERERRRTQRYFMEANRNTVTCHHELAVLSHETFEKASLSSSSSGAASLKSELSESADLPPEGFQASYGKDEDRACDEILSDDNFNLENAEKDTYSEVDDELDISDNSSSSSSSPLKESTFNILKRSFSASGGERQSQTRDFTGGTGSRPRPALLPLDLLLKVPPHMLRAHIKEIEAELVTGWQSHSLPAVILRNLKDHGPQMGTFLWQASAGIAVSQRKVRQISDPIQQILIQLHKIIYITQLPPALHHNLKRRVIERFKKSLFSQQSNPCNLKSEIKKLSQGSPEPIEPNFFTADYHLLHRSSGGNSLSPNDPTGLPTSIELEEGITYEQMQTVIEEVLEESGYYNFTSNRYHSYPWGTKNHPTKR
Chain of KIT (D816V) (P10721 26-976 D816V): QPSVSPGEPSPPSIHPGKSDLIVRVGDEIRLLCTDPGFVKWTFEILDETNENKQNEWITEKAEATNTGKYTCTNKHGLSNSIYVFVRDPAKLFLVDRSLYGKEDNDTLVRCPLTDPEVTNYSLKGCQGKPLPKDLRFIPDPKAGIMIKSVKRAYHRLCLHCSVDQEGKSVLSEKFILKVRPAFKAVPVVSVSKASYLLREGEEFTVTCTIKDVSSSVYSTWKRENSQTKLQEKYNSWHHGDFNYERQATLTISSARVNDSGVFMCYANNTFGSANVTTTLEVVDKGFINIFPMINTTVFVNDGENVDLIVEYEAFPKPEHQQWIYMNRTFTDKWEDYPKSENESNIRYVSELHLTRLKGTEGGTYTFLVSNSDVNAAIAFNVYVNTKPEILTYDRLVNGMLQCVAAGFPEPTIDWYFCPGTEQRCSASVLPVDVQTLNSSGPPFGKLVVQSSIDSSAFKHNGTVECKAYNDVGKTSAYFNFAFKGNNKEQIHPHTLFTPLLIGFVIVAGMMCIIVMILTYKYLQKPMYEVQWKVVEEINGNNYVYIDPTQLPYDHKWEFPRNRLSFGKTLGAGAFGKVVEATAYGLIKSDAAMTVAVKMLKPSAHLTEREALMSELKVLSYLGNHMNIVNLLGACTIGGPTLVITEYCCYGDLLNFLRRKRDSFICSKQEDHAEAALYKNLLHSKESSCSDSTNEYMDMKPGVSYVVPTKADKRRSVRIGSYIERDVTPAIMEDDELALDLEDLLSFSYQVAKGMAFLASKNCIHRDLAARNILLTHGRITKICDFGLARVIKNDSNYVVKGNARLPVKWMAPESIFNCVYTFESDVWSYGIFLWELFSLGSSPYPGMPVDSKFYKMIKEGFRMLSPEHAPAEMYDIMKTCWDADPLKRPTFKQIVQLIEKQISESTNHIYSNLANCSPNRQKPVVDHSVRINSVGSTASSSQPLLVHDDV
Chain of KIT (V559D) (P10721 26-976 V559D): as the sequence (P10721 26-976 D816V) above, with V534D, V791D counted along it

## Nc1ncc(-c2nc3ccccc3o2)c(-c2ccncc2)n1 [Comparative Compound 324, 5-(1,3-benzoxazol-2-yl)-4-(pyridine-4-yl)pyrimidin-2-amine]
[1]
  remaining binding at 10 µM: 89%
[2]
  remaining binding at 10 µM: 85%
[3]
  remaining binding at 10 µM: 44%
[4]
  remaining binding at 10 µM: 80%
[5]
  remaining binding at 10 µM: 89%
[6]
  remaining binding at 10 µM: 94%
[7]
  remaining binding at 10 µM: 98%
[8]
  remaining binding at 10 µM: 70%
[9]
  remaining binding at 10 µM: 80%
[10]
  remaining binding at 10 µM: 100%
[11]
  remaining binding at 10 µM: 98%
[12]
  remaining binding at 10 µM: 100%
[13]
  remaining binding at 10 µM: 86%
[14]
  remaining binding at 10 µM: 100%
[15]
  remaining binding at 10 µM: 91%
[16]
  remaining binding at 10 µM: 100%
[17]
  remaining binding at 10 µM: 100%
[18]
  remaining binding at 10 µM: 100%
[19]
  remaining binding at 10 µM: 96%
[20]
  remaining binding at 10 µM: 99%
[21]
  remaining binding at 10 µM: 56%
[22]
  remaining binding at 10 µM: 100%
[23]
  remaining binding at 10 µM: 68%
[24]
  remaining binding at 10 µM: 82%
[25]
  remaining binding at 10 µM: 69%
[26]
  remaining binding at 10 µM: 100%
[27]
  remaining binding at 10 µM: 100%
[28]; Cell Count AC50
  AC50 at 72 h: > 100 µM
[28]; [34]
  AC50 at 72 h: > 100 µM
[28]; Cytochrome c AC50
  AC50 at 72 h: 82 µM
[28]; DNA structure AC50
  AC50 at 72 h: > 100 µM
[28]; Mitochondrial mass AC50
  AC50 at 72 h: > 100 µM
[28]; [35]
  AC50 at 72 h: > 100 µM
[28]; Nuclear size AC50
  AC50 at 72 h: > 100 µM
[29]
  Cell membrane permeability MEC: (11.1↑) μM
  Cytochrome c MEC: (22.2↑) μM
  DNA structure MEC: (7.33↑) μM
  Mitochondrial mass MEC: (16.8↓) μM
  Mitochondrial membrane potential MEC: (17.2↑) μM
[30]
  remaining binding at 10 µM: 98%
[31]
  remaining binding at 10 µM: 100%
[32]
  remaining binding at 10 µM: 97%
[33]
  remaining binding at 10 µM: 91%

## CNc1c(C(N)=O)c2ccccn2c1C(=O)c1ccc(F)cc1 [Compound A, 2-methyl-amino-3-[(4-fluorophenyl)carbonyl]indolizine-1-carboxamide]
[1]
  remaining binding at 10 µM: 65%
[2]
  remaining binding at 10 µM: 76%
[3]
  remaining binding at 10 µM: 44%
[4]
  remaining binding at 10 µM: 81%
[5]
  remaining binding at 10 µM: 96%
[6]
  remaining binding at 10 µM: 100%
[7]
  remaining binding at 10 µM: 91%
[8]
  remaining binding at 10 µM: 45%
[9]
  remaining binding at 10 µM: 71%
[10]
  remaining binding at 10 µM: 70%
[11]
  remaining binding at 10 µM: 49%
[12]
  remaining binding at 10 µM: 100%
[13]
  remaining binding at 10 µM: 84%
[14]
  remaining binding at 10 µM: 95%
[15]
  remaining binding at 10 µM: 71%
[16]
  remaining binding at 10 µM: 93%
[17]
  remaining binding at 10 µM: 85%
[18]
  remaining binding at 10 µM: 86%
[19]
  remaining binding at 10 µM: 91%
[20]
  remaining binding at 10 µM: 98%
[21]
  remaining binding at 10 µM: 100%
[22]
  remaining binding at 10 µM: 100%
[23]
  remaining binding at 10 µM: 60%
[24]
  remaining binding at 10 µM: 65%
[25]
  remaining binding at 10 µM: 19%
[26]
  remaining binding at 10 µM: 100%
[27]
  remaining binding at 10 µM: 65%
[28]; Cell Count AC50
  AC50 at 72 h: 7.88 µM
[28]; [34]
  AC50 at 72 h: > 40 µM
[28]; Cytochrome c AC50
  AC50 at 72 h: > 100 µM
[28]; DNA structure AC50
  AC50 at 72 h: > 100 µM
[28]; Mitochondrial mass AC50
  AC50 at 72 h: > 40 µM
[28]; [35]
  AC50 at 72 h: 43.4 µM
[28]; Nuclear size AC50
  AC50 at 72 h: 12.3 µM
[29]
  Cell Count MEC: 2.75↓ μM
  Cell membrane permeability MEC: 1.26↑ μM
  DNA structure MEC: 15.1↑ μM
  Mitochondrial mass MEC: 1.34↑ μM
  Mitochondrial membrane potential MEC: 3.31↓ μM
  Nuclear size MEC: 2.44↑ μM
[30]
  remaining binding at 10 µM: 91%
[31]
  remaining binding at 10 µM: 100%
[32]
  remaining binding at 10 µM: 86%
[33]
  remaining binding at 10 µM: 79%
